pIC50: −log10 of the molar value. Read-outs that look alike come from different tables or passages of the source.
What was measured:
[1] = tested on: RBL-2H3 cells; experiment: Inhibition of mast cell degranulation (β-hexosaminidase release); type: cell-based, rat; settings: for pIC50: RBL-2H3 cells sensitized with anti-DNP IgE, triggered with DNP-HSA, 1 h preincubation
Source text: Mast cells are key effector cells involved in allergic and inflammatory diseases, and the Rat Basophilic Leukemia clone 2H3 (RBL-2H3) cell line is a commonly used model of allergen dependent immune modulator release (degranulation) in mast cells. On their surface, they express the high affinity receptor for IgE (FcεRI). Upon binding of antigen-specific IgE to the receptor, cells become sensitized to the IgE specific antigen (allergen). When IgE-sensitized cells then encounter multivalent antigen, the antigen clusters IgE-FcεRI complexes and initiates a signal transduction cascade that leads to degranulation, that is, the release of inflammatory mediators, such as cytokines, eicosanoids, histamine and enzymes. The assay can be used as a screening method to identify immune-modulating compounds, in particular compounds useful in the medical management of allergic and inflammatory diseases and asthma, β-hexosaminidase was previously shown to be released with the same kinetics as histamine (Schwartz et al., J Immunology; 123:1445-1450 (1979)), thus offering a simple means to monitor degranulation. The RBL-2H3 cell line has been successfully used to identify compounds with anti-allergic activity (Choo et al. Planta Med., 69:518-522 (2003)).
Cell Culture: RBL-2H3 cells obtained from the German Collection of Microorganisms and Cell Cultures (ACC312) (Braunschweig, Germany) were maintained in 70% Minimum Essential Medium with Earle's Salts, 20% RPMI 1640 Medium, 10% FBS and 2 mM l-glutamine in 95% air/5% CO2 at 37° C. and routinely checked for mycoplasma contamination. Cells were passaged every 3-4 days; after washing cells once with 35 ml PBS cells were incubated 8 min with 5 ml 0.05% Trypsin-EDTA solution at 37° C. Cells were removed from the incubator, 15 ml culture medium was added and cells were resuspended by repeated pipetting.
Cell seeding: cells were harvested with Trypsin-EDTA as described and 50-100 μl cell suspension seeded Into Costar CellBind 24 well cluster plates (no. 3337). Plates were kept for 30 min at RT under the sterile hood before being transferred to the incubator. Cells were used within one or two days after seeding.
For sensitization, cells for immediate use were sensitized 6-12 h after plating; cells to be used the following day were sensitized 26-38 h after plating. Culture plates were removed from the incubator and checked for cell growth and contamination. The medium was discarded and cells were sensitized with anti-DNP IgE (0.4 μg/ml) in 0.4 ml culture medium overnight. Following overnight sensitization, cells were washed with 0.8 ml pre-warmed TyB and 0.38 ml test compound or vehicle control (supplemented or not with 1% FBS) were added to duplicate wells. Samples were adjusted to contain 1% vehicle for test compounds dissolved in organic solvents. Cells were incubated for 1 h at 37° C. At the end of the incubation period, cells were routinely stimulated with 20 μl DNP-HSA (2 μg/ml; final concentration 0.1 μg/ml) diluted in TyB and cells were incubated for 15 min at 37° C. Alternatively, cells were stimulated with 20 μl […] (final concentration 0.25 μM) or 20 nM […] (final concentration 0.25 μM), both in the absence or presence of 20 nM PMA (final concentration).
Plates were removed from the incubator and immediately centrifuged at 4° C. for 5 min at 250×g and transferred to an ice bath. Aliquots of supernatants, 25 μl, were transferred to 96-well plates. Remaining supernatant was aspirated from control wells and cells were lysed in […] lysis buffer for 5 min at RT on an orbital shaker at 450 rpm under non-sterile conditions. After lysis, 25 μl aliquots of lysates were transferred to 96-well plates.
MUG substrate solution, 100 μl, were added to supernatant and lysate samples and plates were incubated 30 min at 37° C. The reaction was terminated by addition of 150 μl stop solution. Fluorescence was measured at 365 nm excitation and 440 nm emission wavelengths. […]

[2] = tested on: RBL-2H3 cells; experiment: Maximum tolerated concentration (cytotoxicity by lactate dehydrogenase release); type: cell-based, rat
Source text: A commercially available cytotoxicity test was used (Promega Cytotox-One cat. #67891).
The safety index (SI) of a test compound Is the ratio between the maximum tolerated concentration and the 1C50 and is used as a measure of the relative safety of the test compound.

[3] = Rattus norvegicus, 25 μM, RBL-2H3 cells
[4] = highest concentration not causing cytotoxicity, LDH release
[5] = ratio between maximum tolerated concentration and IC50

Compound | MTC (maximum tolerated concentration) [2, 4] | pIC50 ([1]; Rattus norvegicus) | SI (safety index, ratio MTC/IC50) [2, 5] | pIC50 [1] | other results
CCCCCCCCCCCCCC[N@+]1(CCCS(=O)(=O)[O-])CCC[C@H](C(=O)N(CC)CC)C1 (racemic) [Compound 2c, Trans-N-Tetradecyl-N-(3-Sulfonatopropyl)-3-Diethylaminocarbonyl-Piperidinium] | 100 µM | – | – | – | inhibition at 25 µM [1, 3]: 50%
CCCCCCCCCCCCCC[N+](C)(C)CC(CC)CS(=O)(=O)[O-] (centres unmarked) [Compound 1f, 2-((Dimethyl(Tetradecyl)Ammonio)Methyl)Butane-1-Sulfonate] | 75 µM | 5.40 | 18.8 | – | –
CCCCCCCCCCCCCCCCN(C)CCCP(=O)(O)O [Compound 1v, 3-(N-Methyl-N—Hexadecylamino)Propylphosphonic Acid] | 200 µM | 5.06 | 22.7 | – | –
CCCCCCCCCCCCCCN(C)CCCC(=O)O [Compound 1n, 4-(Methyl(Tetradecyl)Ammonio)Butanoate] | 100 µM | 5.10 | 12.5 | – | –
CCCCCCCCCCCCCCCC[N+](C)(C)CCCS(=O)(=O)[O-] [Compound 1h, 3-(N,N-dimethyIpalmitylammonio)propansulfonate] | – | – | – | 5.43 | MTC (maximum tolerated concentration) [2]: 50 µM; SI (safety index, ratio MTC/IC50) [2]: 13.5
CCCCCCCCCCCCCC[N+](C)(C)CCC(=O)[O-] [Compound 1k, 3-(Dimethyl(Tetradecyl)Ammonio)Propanoate] | 100 µM | 5.28 | 18.9 | – | –
CCCCCCCCCCCCCCN(C)CCCP(=O)(O)O [Compound 1u, 3-(N-Methyl-N-Tetradecylamino)Propylphosphonic Acid (Betaine)] | 200 µM | – | 33.9 | 5.23 | –
CCCCCCCCCCCCCCCCOP(=O)([O-])OCC[N+](C)(C)C [Miltefosine, reference compound] | – | 5.38 | – | – | MTC (maximum tolerated concentration) ([2]; rat): 25 µM; SI (safety index, ratio MTC/IC50) ([2]; rat): 6.0
CCCCCCCCCCCCCCN(C)CCS(=O)(=O)O [Compound 1s, 2-(N-Methyltetradecylammonio)Ethanesulfonate] | 100 µM | 5.25 | 17.9 | – | –
CCCCCCCCCCCC[N+](C)(C)CCS(=O)(=O)[O-] [Compound 1r, 2-(N,N-Dimethyldodecylammonio)Ethanesulfonate] | 200 µM | 5.38 | 47.6 | – | –
CCCCCCCCCCCCCCCC[N+]1(CCCS(=O)(=O)[O-])CCCCC1 [Compound 2a, N—Hexadecyl-N-(3-Sulfonatopropyl)Piperidinium] | 50 µM | 5.35 | 11.1 | – | –
CCCCCCCCCCCC[N+](C)(C)CCC(=O)[O-] [Compound 1m, 3-(Dimethyl(Dodecyl)Ammonio)Propanoate] | 100 µM | – | – | – | inhibition at 25 µM [1, 3]: 73%
CCCCCCCCCCCCCC[N+](C)(C)CCCCS(=O)(=O)[O-] [Compound 1e, 4-(N1N-Dimethylmyristylammonio)Butanesulfonate] | – | – | – | 5.43 | MTC (maximum tolerated concentration) [2]: 150 µM; SI (safety index, ratio MTC/IC50) [2]: 40.5
CCCCCCCCCCCC[N+](C)(C)CC(=O)[O-] [Compound 1p, N-Dodecyl-N,N-Dimethylglycine] | – | – | – | – | Inhibition of degranulation: % inhibition at 25 μM ([1]; 25 μM, RBL-2H3 cells): 50%; MTC (maximum tolerated concentration) [2]: 100 µM
CCCCCCCCCCCCCCCC[N+]1(CCCS(=O)(=O)[O-])CCC(O)CC1 (centres unmarked) [Compound 2b, 1-Hexadecyl-1-(3-Sulfonatopropyl)-4-Hydroxypiperidinium] | 50 µM | 5.37 | 11.6 | – | –
CCCCCCCCCCCCN(C)CCS(=O)(=O)O [Compound 1q, 2-(N-Methyldodecylammonio)Ethanesulfonate] | 200 µM | 5.06 | 22.7 | – | –
Br.CCCCCCCCCCCCCCN(C)CCCP(=O)(OCC)OCC [Compound 1x, 3-(N-Methyl-N-Tetradecylamino)Propylphosphonic Acid Diethyiester Hydrobromide] | 100 µM | – | 18.2 | 5.26 | –
CCCCCCCCCCCCCC[N+](C)(C)CCCC(=O)[O-] [Compound 1o, 4-(Dimethyl(Tetradecyl)Ammonio)Butanoate] | 100 µM | – | – | – | inhibition at 25 µM [1, 3]: 65%
CCCCCCCCCCCCCC[N+](C)(C)CC(=O)[O-] [Compound 1j, N-Tetradecyl-N,N-Dimethylglycine] | 75 µM | – | 14.7 | 5.29 | –
CCCCCCCCCCCCCCN(C)CCCS(=O)(=O)O [Compound 1b, 3-(N-Methyltetracylammonio)Propanesulfonate] | – | – | – | 5.37 | MTC (maximum tolerated concentration) [2]: 100 µM; SI (safety index, ratio MTC/IC50) [2]: 23.3
Br.CCCCCCCCCCCCCCCCN(C)CCCP(=O)(OCC)OCC [Compound 1w, 3-(N-Methyl-N—Hexadecylamino)Propylphosphonic Acid Diethylester Hydrobromide] | 200 µM | 5.16 | 29.0 | – | –
CCCCCCCCCCCC[N+](C)(C)CCCP(=O)(O)O [Compound 1t, 3-(N,N-Dimethyldodecylammonio)Propylphosphonic Acid] | 200 µM | – | 32.8 | 5.21 | –
CCCCCCCCCCCCCC[N+](C)(C)CCS(=O)(=O)[O-] [Compound 1d, 2-(N,N-Dimethyltetradecylammonio)Ethanesulfonate] | 100 µM | 5.41 | 25.6 | – | –
CCCCCCCCCCCCCCCCCC[N+](C)(C)CCCS(=O)(=O)[O-] [Compound 1g, 3-(N,N-Dimethyloctadecylammonio)Propanesulfonate] | 50 µM | 5.02 | 5.3 | – | –
CCCCCCCCCCCC[N+](C)(C)CCCS(=O)(=O)[O-] [Compound 1i, 3-(N,N-dimethyldodecyl-ammonio) propanesulfonate] | – | – | – | 5.39 | MTC (maximum tolerated concentration) [2]: 200 µM; SI (safety index, ratio MTC/IC50) [2]: 48.8

— patent US10829506B2, “Amino- or ammonium-containing sulfonic acid, phosphonic acid and carboxylic acid derivatives and their medical use” (GRI Bio, Inc., priority 2011, dated 2020)
